Results as given in patent US20160073662A1, “PRESERVATIVE AND ADDITIVE FOR FOOD AND FEED” (priority 2014, published 2016).

Test: Contact of acid solution with human skin
Conditions: solution with a pH of less than 0.5

O=S(=O)(O)O [sulfuric acid]
irritation of hand put into solution: an irritation would occur
